9 compounds from ChEMBL document CHEMBL1201862, “PubChem BioAssay data set” (2004) can be followed below.

Calls of active or inactive are those of the source.

The target of one experiment is Transthyretin (Homo sapiens, UniProt P02766). Put plainly: Luminescence-based cell-based high throughput dose response assay to identify activators of Transthyretin (TTR) transcription. Type of experiment: functional.
Experiment [1] concerns the target T1, RNA-binding protein pos-1 (Caenorhabditis elegans, UniProt G5EF15).
T1 sequence (G5EF15 whole entry): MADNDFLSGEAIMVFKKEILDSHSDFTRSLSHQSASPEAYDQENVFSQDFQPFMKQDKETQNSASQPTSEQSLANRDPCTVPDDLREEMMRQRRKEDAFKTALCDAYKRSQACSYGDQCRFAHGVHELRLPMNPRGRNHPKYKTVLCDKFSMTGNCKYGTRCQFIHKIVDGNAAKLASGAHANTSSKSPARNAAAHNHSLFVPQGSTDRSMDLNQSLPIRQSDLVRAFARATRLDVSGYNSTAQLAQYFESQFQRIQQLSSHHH
Put plainly: disruptors of C. elegans POS-1 RNA interaction – biochemical, fluorescence polarization, dose response (AID 1964).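 Note: purified POS-1 fused to maltose binding protein made in E. coli; potency of compounds blocking POS-1 binding to fluorescent RNA.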 Background: Fluorescence polarisation rises when a labelled molecule tumbles more slowly, as on binding a larger partner.

The target of experiment [2] is T2, Zinc finger protein mex-5 (Caenorhabditis elegans, UniProt Q9XUB2).
T2 sequence (Q9XUB2 whole entry): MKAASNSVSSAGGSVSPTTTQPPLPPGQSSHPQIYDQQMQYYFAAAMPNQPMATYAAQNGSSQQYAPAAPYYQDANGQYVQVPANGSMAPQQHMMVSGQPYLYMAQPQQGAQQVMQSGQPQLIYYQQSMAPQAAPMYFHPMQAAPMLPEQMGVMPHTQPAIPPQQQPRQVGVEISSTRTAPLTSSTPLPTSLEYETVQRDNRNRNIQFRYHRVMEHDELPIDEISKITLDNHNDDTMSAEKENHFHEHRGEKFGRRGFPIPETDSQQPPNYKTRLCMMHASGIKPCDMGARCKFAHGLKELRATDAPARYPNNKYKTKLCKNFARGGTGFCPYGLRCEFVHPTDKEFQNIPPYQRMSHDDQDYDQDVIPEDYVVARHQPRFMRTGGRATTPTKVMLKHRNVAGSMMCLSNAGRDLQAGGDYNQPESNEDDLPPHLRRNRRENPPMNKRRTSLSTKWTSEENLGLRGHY
Put plainly: potency of MEX-5 RNA-binding blockers – biochemical, C. elegans, fluorescence polarization, dose response (AID 1960).

The target of experiment [3] is Bifunctional protein GlmU (Mycobacterium tuberculosis, UniProt P9WMN3). The experiment can be described thus: Inhibitors of Mycobacterial Glucosamine-1-phosphate acetyl transferase (GlmU). Secondary screen. Further details: species or system Mycobacterium tuberculosis H37Rv.
For experiment [4], the target named is Induced myeloid leukemia cell differentiation protein Mcl-1 (Homo sapiens, UniProt Q07820). Type of experiment: functional.
For another experiment, the system named is Vero. Put plainly: viability of Vero cells under compound – cytotoxicity control for flavivirus capping enzyme inhibitors (AID 588742). Particulars: Chlorocebus sabaeus. Type of experiment: functional.
The target in a further experiment is Genome polyprotein (dengue virus type 2, UniProt P29990). Put plainly: flavivirus cap methylation enzyme inhibition – biochemical, confirmation dose response, primary screen (AID 588689). Type of experiment: functional.
The next experiment has as its target T3, Caspase-6 (Homo sapiens, UniProt P55212).
T3 sequence (P55212 whole entry): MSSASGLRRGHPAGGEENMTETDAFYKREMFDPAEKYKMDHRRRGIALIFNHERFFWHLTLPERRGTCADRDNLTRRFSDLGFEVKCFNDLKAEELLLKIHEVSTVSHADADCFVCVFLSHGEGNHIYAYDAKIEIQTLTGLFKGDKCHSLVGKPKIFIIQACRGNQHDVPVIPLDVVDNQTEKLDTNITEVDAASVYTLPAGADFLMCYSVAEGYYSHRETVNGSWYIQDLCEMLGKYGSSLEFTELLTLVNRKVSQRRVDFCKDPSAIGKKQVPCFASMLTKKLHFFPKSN
The experiment can be described thus: inhibition of CASP6 peptide cleavage – biochemical, VEID-R110 fluorescence, cherry-pick, dose response (AID 720632).

A short description of experiment [5]: viability loss in HepG2 liver cells – cell-based, ATP luminescence, cherry-pick, set 6, cytotoxicity control, dose response (AID 1053125). Type of experiment: functional.
For another experiment, the target named is Prothrombin (Homo sapiens, UniProt P00734). The experiment can be described thus: Thrombin 1536 HTS Dose Response Confirmation. [Related pubchem assays: 1046 (Thrombin 1536 HTS; hits were confirmed in this assay)]. Type of experiment: functional.
Experiment [6] in a line: HIV-1 Vif–A3G interaction blockers – biochemical, TR-FRET, GST-Vif 1-94, biotin-A3G peptide, dose response retest, primary screen (AID 1117319).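 Note: TR-FRET signal of purified GST-Vif binding a biotinylated A3G peptide; inhibitors lower the FRET signal by blocking Vif and A3G binding.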 Type of experiment: functional. For orientation: Time-resolved FRET reads energy transfer from a long-lived donor to a nearby acceptor.
Experiment [7] can be described thus: viability inhibitors of stage V gametocytes – luminescence, dose response (AID 1117278).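 Note: gametocytes exposed to compound for 24 hours.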 Type of experiment: functional, cell-based.
Experiment [8] can be described thus: viability loss in human Jurkat cells – cell-based, luminescence, cytotoxicity control for P. falciparum gametocyte viability project, dose response (AID 1117277).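 Note: potency reflects loss of cellular ATP meaning fewer viable cells.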 Type of experiment: functional.
Experiment [9] concerns the target E3 ubiquitin-protein ligase Mdm2 (Homo sapiens, UniProt Q00987). Put plainly: MDM2-luc reporter signal enhancers, multi-concentration potency testing, MDM2 ubiquitin-protein ligase inhibitor program, whole-cell format, luminescence detection, 384-well microplate (AID 1394).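 Note: MDM2 E3 inhibitors raise luminescence so EC50 is for signal enhancement.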 Type of experiment: functional.
Experiment [10] can be described thus: viability loss in Vero cells – cytotoxicity control for Vif-APOBEC3G degradation inhibitor project, dose response (AID 1117358). Type of experiment: functional. The following applies: Vero.
The nature of experiment [11]: A549 lung cell viability reduction – CellTiter-Glo luminescence, cherry-pick, cytotoxicity control, dose response (AID 743484). Type of experiment: functional, cell-based. (In ATP-based viability assays light output follows the ATP content of the culture.)
Experiment [12] concerns the target Oxysterols receptor LXR-beta (Homo sapiens, UniProt P55055). Type of experiment: functional, cell-based.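 Note: Cell-based luminescence dose-response assay of agonist activity at LXR, run as a confirmatory counterscreen to a daf-12 agonist screen; HEK293 cells with Gal4-LXR fusion and GAL4-driven luciferase reporter; agonist potency from rising luciferase signal of a Gal4-LXR reporter.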

Chain of Bifunctional protein GlmU (P9WMN3 whole entry): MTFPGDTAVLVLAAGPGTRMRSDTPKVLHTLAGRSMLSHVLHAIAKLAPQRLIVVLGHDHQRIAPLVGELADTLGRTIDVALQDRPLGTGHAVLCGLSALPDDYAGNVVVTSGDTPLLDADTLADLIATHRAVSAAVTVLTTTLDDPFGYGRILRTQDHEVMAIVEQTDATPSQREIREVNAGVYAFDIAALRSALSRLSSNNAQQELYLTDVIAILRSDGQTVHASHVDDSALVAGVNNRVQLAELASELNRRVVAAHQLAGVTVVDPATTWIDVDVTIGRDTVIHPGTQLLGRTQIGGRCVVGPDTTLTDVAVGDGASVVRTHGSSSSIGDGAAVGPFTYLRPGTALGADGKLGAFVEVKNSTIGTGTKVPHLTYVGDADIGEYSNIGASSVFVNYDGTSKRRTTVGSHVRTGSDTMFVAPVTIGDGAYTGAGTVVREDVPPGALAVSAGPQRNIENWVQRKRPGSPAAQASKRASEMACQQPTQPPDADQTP
Chain of Induced myeloid leukemia cell differentiation protein Mcl-1 (Q07820 whole entry): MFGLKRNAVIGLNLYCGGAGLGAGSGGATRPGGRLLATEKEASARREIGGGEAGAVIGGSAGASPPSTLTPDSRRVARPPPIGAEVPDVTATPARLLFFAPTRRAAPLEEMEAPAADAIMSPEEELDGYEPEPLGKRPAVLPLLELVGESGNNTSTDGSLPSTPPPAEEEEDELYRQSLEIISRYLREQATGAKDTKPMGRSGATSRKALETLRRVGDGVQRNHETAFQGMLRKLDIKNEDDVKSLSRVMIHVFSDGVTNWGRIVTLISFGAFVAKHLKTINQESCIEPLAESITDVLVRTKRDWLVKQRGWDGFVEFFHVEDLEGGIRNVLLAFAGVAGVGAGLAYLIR
Chain of Oxysterols receptor LXR-beta (P55055 whole entry, the tested form may be a part): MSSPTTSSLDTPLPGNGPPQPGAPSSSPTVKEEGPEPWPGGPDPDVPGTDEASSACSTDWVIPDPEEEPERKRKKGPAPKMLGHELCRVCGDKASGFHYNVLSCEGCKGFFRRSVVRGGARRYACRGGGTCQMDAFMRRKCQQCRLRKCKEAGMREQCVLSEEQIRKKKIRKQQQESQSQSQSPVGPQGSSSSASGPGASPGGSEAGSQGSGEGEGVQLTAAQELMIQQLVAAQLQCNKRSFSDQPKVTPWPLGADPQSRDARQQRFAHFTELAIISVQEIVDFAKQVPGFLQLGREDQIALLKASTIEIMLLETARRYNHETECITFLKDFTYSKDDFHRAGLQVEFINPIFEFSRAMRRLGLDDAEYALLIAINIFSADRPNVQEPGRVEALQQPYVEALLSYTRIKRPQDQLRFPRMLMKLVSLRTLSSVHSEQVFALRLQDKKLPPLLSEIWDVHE
Chain of E3 ubiquitin-protein ligase Mdm2 (Q00987 whole entry): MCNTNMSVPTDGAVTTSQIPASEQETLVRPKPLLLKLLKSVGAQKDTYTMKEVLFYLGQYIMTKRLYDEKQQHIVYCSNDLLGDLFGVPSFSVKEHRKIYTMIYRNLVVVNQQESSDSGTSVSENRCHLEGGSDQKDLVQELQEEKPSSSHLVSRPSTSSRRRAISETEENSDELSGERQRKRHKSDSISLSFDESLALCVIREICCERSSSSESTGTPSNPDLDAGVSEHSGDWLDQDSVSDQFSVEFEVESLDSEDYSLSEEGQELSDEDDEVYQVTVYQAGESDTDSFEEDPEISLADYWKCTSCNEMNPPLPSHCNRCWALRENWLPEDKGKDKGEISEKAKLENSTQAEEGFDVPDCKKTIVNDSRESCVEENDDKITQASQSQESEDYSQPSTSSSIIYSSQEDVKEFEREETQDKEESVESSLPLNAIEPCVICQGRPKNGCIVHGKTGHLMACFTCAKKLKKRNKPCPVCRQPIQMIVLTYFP
Chain of Genome polyprotein (P29990 2492-3391 limits assumed): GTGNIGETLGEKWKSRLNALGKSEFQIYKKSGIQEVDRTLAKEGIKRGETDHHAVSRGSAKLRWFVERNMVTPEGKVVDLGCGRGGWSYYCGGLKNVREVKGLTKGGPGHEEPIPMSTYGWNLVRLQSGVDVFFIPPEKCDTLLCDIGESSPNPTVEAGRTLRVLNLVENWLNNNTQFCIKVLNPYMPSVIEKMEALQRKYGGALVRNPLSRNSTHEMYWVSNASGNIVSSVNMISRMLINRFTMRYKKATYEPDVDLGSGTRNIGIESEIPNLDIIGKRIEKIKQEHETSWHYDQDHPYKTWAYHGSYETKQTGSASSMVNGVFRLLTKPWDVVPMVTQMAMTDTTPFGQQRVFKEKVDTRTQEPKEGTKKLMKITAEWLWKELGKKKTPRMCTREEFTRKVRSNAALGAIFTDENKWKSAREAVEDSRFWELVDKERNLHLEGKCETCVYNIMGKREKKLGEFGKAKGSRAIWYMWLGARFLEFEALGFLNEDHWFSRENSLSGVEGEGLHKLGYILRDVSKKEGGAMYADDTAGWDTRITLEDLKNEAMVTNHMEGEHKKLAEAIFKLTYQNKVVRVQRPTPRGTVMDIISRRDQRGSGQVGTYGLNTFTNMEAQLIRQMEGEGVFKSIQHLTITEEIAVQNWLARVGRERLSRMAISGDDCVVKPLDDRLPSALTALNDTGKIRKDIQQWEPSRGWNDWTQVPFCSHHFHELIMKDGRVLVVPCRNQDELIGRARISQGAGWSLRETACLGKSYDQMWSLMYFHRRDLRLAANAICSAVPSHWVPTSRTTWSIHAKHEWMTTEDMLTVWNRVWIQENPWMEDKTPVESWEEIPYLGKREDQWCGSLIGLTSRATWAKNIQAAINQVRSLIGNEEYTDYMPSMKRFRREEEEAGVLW

As for `Cc1c(NS(=O)(=O)c2ccc(NC3CCCC3)c([N+](=O)[O-])c2)c(=O)n(-c2ccccc2)n1C`, the EC50 – broadly, the concentration at which the effect is half-maximal – on Transthyretin is > 167 µM (inactive).

Turning to `O=c1ccc2[n+]([O-])c3ccc(O)cc3oc-2c1`, the EC50 is > 300 µM (not active) in [1] and 37.7 µM (active) in experiment [2]. In addition, the IC50 – broadly, the concentration needed to halve the response being measured – in [3] was 59.4 µM (active); in experiment [4], 10.1 µM (not active); on Genome polyprotein, 1.61 µM (active). The CC50 (commonly the concentration giving 50% cytotoxicity) in the experiment with Vero was > 40 µM (active). Also, the AC50 (in general, the concentration giving half of the maximal activity seen) at Caspase-6 is 0.285 µM (active).

Regarding `N#CC1=C(N)OC2=C(C(=O)CCC2)C1c1cc2c(cc1Br)OCO2` (stereo not given), the EC50 in experiment [1] and in [2] was > 300 µM (not active) in each case. Moreover, the AC50 in [5] is > 52 µM (inactive).

In the case of `COc1cc(OC)cc(C(=O)NNC(=O)c2ccccc2Br)c1`, the results for the IC50 (against Prothrombin; in experiment [6]) were > 50 µM (not active) and > 100 µM (active), respectively.

In the case of `Cc1ccc(NC(=O)Cn2cccc2)c(C)c1`, the IC50 in [7] is > 109 µM (inactive); in [8] it was > 83.4 µM (inactive).

Regarding `COc1ccc(CCNC(=O)COC(=O)c2cnc(C)cn2)cc1OC`, the EC50 in experiment [9] was 0.17 µM (not active).

Take `Cn1c(Cn2c(=O)sc3ccccc32)nnc1SCC(=O)NCc1ccc(F)cc1`: the CC50 in experiment [10] was > 40 µM (active).

For `CC(CNc1ccc(Cl)cc1)(CNc1ccc(Cl)cc1)[N+](=O)[O-]`, the AC50 in experiment [11] was > 52 µM (inactive).

On to `O=C1C(/C=N/c2ccccc2)=C(O)c2ccccc21`, for which the EC50 (in [12]; in “cells”) was > 67.5 µM (inactive) in each case.
